Assay results: US12396977B2, “Composition for treating degenerative brain diseases, containing 2-pentylfuran as active ingredient” (DAEGU GYEONGBUK INSTITUTE OF SCIENCE AND TECHNOLOGY, priority 2019, dated 2025)
“Also recorded” adds a separate entry of the source.

Experiments:
primary microglia [1] = assay: Fura-2/AM calcium imaging of microglia; format: cell-based, mouse; conditions: 2-PF 100, 300, 1000 μM
Description: The newly isolated microglia were placed on poly-D-lysine-coated 18-mm aperture microscope cover glasses (#0111580; Marienfeld), and after 24 hours, the microglia were cultured in a superfusion chamber for 30 minutes. The chamber contained 4 μM of Fura-2/AM (Ca^2+-sensitive fluorescent dye; #F1221; Thermo Fisher Scientific) in a 0.22 μm-filtered Ringer's solution (115 mM NaCl, 2.5 mM KCl, 1 mM CaCl2, 1.5 mM MgCl2, 4.5 mM HEPES, pH 7.4). After calcium staining culture, the chamber was placed under an inverted microscope and rinsed with Ringer's solution for 20 minutes before treatment with […]. In this case, the flow rate of the solution is 12 ml/min. Next, the primary microglia were treated with 300 μM ATP (#A2383; Sigma Aldrich) for 5 seconds. After being washed for 5 minutes, the primary microglia were treated with a 2-pentylfuran solution at a concentration of 100 μM for 5 seconds. This step was performed with a 2-pentylfuran solution at two concentrations (300 and 1000 μM). Finally, the primary microglia were treated with a 300 μM ATP solution for 5 seconds. The emitted fluorescent material was photographed using a CCD camera every 2 seconds. Pseudo-color images were converted using fractional fluorescence changes (ΔF/F, Δ[Ca^2+]i). Furthermore, these images show changes in intracellular calcium ions. […]

Olfr111 = assay: Luciferase assay in Hana3A cells, Olfr111; format: cell-based, mouse; conditions: Hana3A cells
Description: Next, Hana3A cells were transfected with RTP1S, and their location and presence on the cell membrane were confirmed as previously described (Behrens et al., 2009; Zhuang and Matsunami, 2008). Such transfection was performed using Lipofectamine 2000 (#11668-019; Thermo Fisher Scientific) according to the manufacturer's instructions. More specifically, the transfected cells were grown on a coverslip (#0101050; Marienfeld) coated with poly D lysine (10 μg/ml; #P7280; Sigma Aldrich). Next, the cells were washed with a warm PBS solution and cooled with ice for 30 minutes to block endocytosis. […] The cells were then incubated with normal horse serum (#008-000-121; Jackson ImmunoResearch) at room temperature for 1 hour. […] After being washed with PBS, the cells were treated with a Cy3-conjugated donkey anti-mouse antibody (1:1,000; #715-165-150; Jackson ImmunoResearch), an Alexa488-conjugated donkey anti-mouse antibody (1:1,000; #715-545-150; Jackson ImmunoResearch), or a Cy3-conjugated donkey anti-rabbit antibody (1:1,000; #711-165-152; Jackson ImmunoResearch) at room temperature for 1 hour. The cells were mounted with a Vectashield fluorescent mounting medium containing DAPI (#H-1200; Vector Laboratories). The expression of heterologous odorant receptors was analyzed with a confocal laser scanning microscope LSM700 and ZEN software (Zeiss).
The Dual-Glo luciferase assay system (#E2940; Promega) was used for odorant receptor ligand screening. More specifically, Hana3A cells were streaked and spread on a white polystyrene 96-well plate (#353296; BD Biosciences) one day before transfection. pCRELuc (1 μg; #219076; Agilent Technologies), pRL-SV40 (1 μg; #E2231; Promega), RTP1S (1 μg), and OR (6 μg; or Mock) vectors were transfected for 24 hours in each plate. Each plate was analyzed using Lipofectamine 2000 (#11668-019; Thermo Fisher Scientific) according to the manufacturer's protocol. Transfected cells were stimulated in CD293 medium (#11913-019; Thermo Fisher Scientific) at 37° C. for 4 hours using diluted odorants at various concentrations. The activity of luciferase was normalized by the activity of Renilla luciferase. The amount of light emitted was measured using a SpectraMax L microplate reader (Molecular Devices).

[2] = test system: Hana3A cells expressing Olfr110; assay: Boyden chamber chemotaxis, Hana3A cells expressing Olfr110; format: cell-based; conditions: 2-PF 10, 100, 1000 uM
Description: (§1) Cell chemotaxis was measured using a multiwell Boyden chamber. More specifically, a polycarbonate filter (8 μm pore; #101-8; Neuroprobe) was coated with […] fibronectin in PBS (Sigma-Aldrich) for 2 hours, and the coated filter was placed in a Boyden chamber. In addition, the bottom side of the plate was filled with serum-free DMEM containing 2-pentylfuran or a culture supernatant. Next, microglia or Hana3A cells were transfected with an odorant receptor structure and then suspended in serum-free DMEM. Subsequently, microglia and Hana3A cells were allowed to stand at 37° C. for 4 hours and 8 hours, respectively. Cells sinking to the bottom were fixed with 4% PFA, and stained with hematoxylin for 10 minutes. Fixed cells were counted under an optical microscope in 5 randomly selected fixed […] fields (200×) using a scored eyepiece. The chemical chemotaxis index was defined as the number of migrating cells using an untreated group as a standard.

primary microglia [3] = assay: cAMP ELISA in primary microglia; format: cell-based, mouse; conditions: 2-PF 0, 100, 500 μM
Description: Primary microglia were inoculated into 48 well plates (2×10^5 cells/well) and treated with 30 μM forskolin (#F3917, Sigma Aldrich), or 2-PF (10, 100, 500 μM) for 30 minutes. In order to confirm the effect of an inhibitor, 1 mM SQ22536 (#17318-31-9; Calbiochem) was first pretreated for 30 minutes. The cells were lysed in a solution of 0.1 M of HCl with 1% Triton X 100 for 10 minutes, and the lysate was centrifuged at 600×g for 2 minutes. The supernatant was directly used for cAMP analysis using a cAMP ELISA kit (Enzo Life Science) according to the manufacturer's protocol. The optical density at 405 nm was measured using a VersaMax microplate reader (Molecular Devices).

primary microglia [4] = assay: Boyden chamber chemotaxis of primary microglia; format: cell-based, mouse; conditions: 100, 300, and 500 μM
Description: as §1

Olfr110 F104W mutation = biological target: T1, Olfr110 F104W mutation (Mus musculus, UniProt A2RT31, F104W); assay: Luciferase assay, Olfr110 F104W mutant; format: cell-based; conditions: increasing concentration of 2-PF
T1 construct: Full-length odorant receptor genes from mouse and human genomic DNA were amplified using appropriate primers; Lucy (N); Flag (N); Rho (N); expressed in transfected cells; host or cells: Hana3A cells
T1 sequence (A2RT31 1-317 F104W): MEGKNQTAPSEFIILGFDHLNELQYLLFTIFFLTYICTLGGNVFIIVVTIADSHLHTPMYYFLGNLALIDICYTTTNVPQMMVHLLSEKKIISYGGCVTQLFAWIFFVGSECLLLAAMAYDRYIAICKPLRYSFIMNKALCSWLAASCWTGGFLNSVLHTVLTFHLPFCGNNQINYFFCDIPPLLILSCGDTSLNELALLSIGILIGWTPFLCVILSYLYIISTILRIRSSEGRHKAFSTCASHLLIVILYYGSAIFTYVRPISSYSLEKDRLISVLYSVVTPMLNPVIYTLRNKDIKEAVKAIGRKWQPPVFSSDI
Description: Specific mutant vectors of the Olfr110 structure were generated using PfuUltra High-Fidelity DNA polymerase (#600380; Agilent Technologies). All mutant vectors (F102W; F104W; Y252F; Y259F; F102W/F104W; Y252F/Y259F; F102W/Y252F/Y259F; F104W/Y252F/Y259F; F102W/F104W/Y252F/Y259F) were sequenced in forward and reverse directions (Macrogen).

[5] = Disease behavior: mouse mobility (movement distance) after IP injection; format: in vivo; conditions: after intraperitoneal (IP) injection
Description: It is known that an increase in disease behavior by activation of microglia is due to an increase in secreted cytokines. This experiment was conducted to confirm an increase in disease behavior with an increase in cytokines. The evaluation of disease behavior was made after IP injection of Sup or 2-PF into the mice.
After IP injection, the mouse was placed in a space with four open sides (40×40×40 cm, white field, black wall), and after the position of the mouse was recorded for 30 minutes using a camera, the movement distance was calculated Thereafter, a pseudo-color heat map was drawn using EthoVision XT (Noldus, Netherlands).

[6] = test system: Hana3A cells expressing Olfr111; assay: Boyden chamber chemotaxis, Hana3A cells expressing Olfr111; format: cell-based; conditions: 2-PF 10, 100, 1000 uM
Description: as §1

CCCCCc1ccco1 [2-PF, 2-pentylfuran]
intracellular calcium ion levels (primary microglia [1]): increased according to an injection amount | reactivity of Olfr111 (relative luciferase activity) (Olfr111): particularly strong reactivity; also recorded: highest reactivity | mobility (chemotaxis) of Olfr110-expressing Hana3A cells [2]: increased in mobility in a concentration-dependent manner | cAMP concentration in primary microglia (primary microglia [3]): increased by 2-PF treatment in a concentration dependent manner | chemotaxis of microglia (primary microglia [4]): significantly increased in a concentration-dependent manner | luciferase activity of Olfr110 F104W mutant (Olfr110 F104W mutation): completely lost | mobility of the mouse (total movement distance) [5]: concentration-dependent decrease | mobility (chemotaxis) of Olfr111-expressing Hana3A cells [6]: increased in mobility in a concentration-dependent manner
